In PubChem BioAssay AID2060627 (Molecular Pharmacology Branch, DTP, NCI, 2025):

Test system: 156681-154-R-J1-PDC complex spheroid viability
Experiment: Anticancer human tumor 156681-154-R-J1-PDC patient-derived melanoma cell line growth inhibition [CLK]
Details: for IC50: curve of first compound; for viability, T/C: stronger effect = lower value
Outline: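 Patient-derived tumor cells grown as complex spheroids with HUVEC endothelial cells and mesenchymal stem cells, treated with drug combinations. Concentrations descend in half-log steps from near clinical Cmax, or from 10 microM if Cmax unknown.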

[1] = second compound 0.0316 µM, first compound 0.0316 µM
[2] = second compound 0.0316 µM, first compound 0.1 µM
[3] = second compound 0.0316 µM, first compound 0.316 µM
[4] = second compound 0.0316 µM, first compound 1 µM
[5] = second compound 0.0316 µM, first compound 3.16 µM
[6] = second compound 0.0316 µM, first compound 10 µM
[7] = second compound 0.1 µM, first compound 0.0316 µM
[8] = second compound 0.1 µM, first compound 0.1 µM
[9] = second compound 0.1 µM, first compound 0.316 µM
[10] = second compound 0.1 µM, first compound 1 µM
[11] = second compound 0.1 µM, first compound 3.16 µM
[12] = second compound 0.1 µM, first compound 10 µM
[13] = second compound 0.316 µM, first compound 0.0316 µM
[14] = second compound 0.316 µM, first compound 0.1 µM
[15] = second compound 0.316 µM, first compound 0.316 µM
[16] = second compound 0.316 µM, first compound 1 µM
[17] = second compound 0.316 µM, first compound 3.16 µM
[18] = second compound 0.316 µM, first compound 10 µM
[19] = second compound 1 µM, first compound 0.0316 µM
[20] = second compound 1 µM, first compound 0.1 µM
[21] = second compound 1 µM, first compound 0.316 µM
[22] = second compound 1 µM, first compound 1 µM
[23] = second compound 1 µM, first compound 3.16 µM
[24] = second compound 1 µM, first compound 10 µM
[25] = second compound 3.16 µM, first compound 0.0316 µM
[26] = second compound 3.16 µM, first compound 0.1 µM
[27] = second compound 3.16 µM, first compound 0.316 µM
[28] = second compound 3.16 µM, first compound 1 µM
[29] = second compound 3.16 µM, first compound 3.16 µM
[30] = second compound 3.16 µM, first compound 10 µM
[31] = second compound 10 µM, first compound 0.0316 µM
[32] = second compound 10 µM, first compound 0.1 µM
[33] = second compound 10 µM, first compound 0.316 µM
[34] = second compound 10 µM, first compound 1 µM
[35] = second compound 10 µM, first compound 3.16 µM
[36] = second compound 10 µM, first compound 10 µM
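Also: spheroids exposed to the agents for seven days.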
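For viability, T/C in this document: 100% = DMSO vehicle control viability.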

SMILES: C#Cc1c(F)ccc2cc(O)cc(-c3ncc4c(N5CC6CCC(C5)N6)nc(OCC56CCCN5CC(F)C6)nc4c3F)c12 (stereo not drawn) + CNC(=O)c1ccc(Nc2nc(OC3CCCC3)c3c(-c4ccc5nc(C)oc5c4)c[nH]c3n2)c(OC)c1
- IC50 (second compound 0.0316 µM): > 10000 nM
- IC50 (second compound 0.1 µM): > 10000 nM
- IC50 (second compound 0.316 µM): > 10000 nM
- IC50 (second compound 1 µM): 114 nM
- IC50 (second compound 3.16 µM): < 31.6 nM
- IC50 (second compound 10 µM): < 31.6 nM
- viability, T/C [1]: 86%
- viability, T/C [2]: 94.4%
- viability, T/C [3]: 104%
- viability, T/C [4]: 109%
- viability, T/C [5]: 113%
- viability, T/C [6]: 101%
- viability, T/C [7]: 53.5%
- viability, T/C [8]: 73.8%
- viability, T/C [9]: 60.3%
- viability, T/C [10]: 70%
- viability, T/C [11]: 73.6%
- viability, T/C [12]: 62.9%
- viability, T/C [13]: 62.4%
- viability, T/C [14]: 48.6%
- viability, T/C [15]: 66.4%
- viability, T/C [16]: 65.9%
- viability, T/C [17]: 67%
- viability, T/C [18]: 65.2%
- viability, T/C [19]: 43.2%
- viability, T/C [20]: 53.5%
- viability, T/C [21]: 47.9%
- viability, T/C [22]: 56%
- viability, T/C [23]: 63.6%
- viability, T/C [24]: 31.6%
- viability, T/C [25]: 54.5%
- viability, T/C [26]: 49.8%
- viability, T/C [27]: 39.2%
- viability, T/C [28]: 49.8%
- viability, T/C [29]: 50.4%
- viability, T/C [30]: 20.2%
- viability, T/C [31]: 45.7%
- viability, T/C [32]: 38.5%
- viability, T/C [33]: 36.7%
- viability, T/C [34]: 50%
- viability, T/C [35]: 43%
- viability, T/C [36]: 13.2%

SMILES: CC(CO)NC(=O)c1cc(-c2ccc(Cl)cc2)nn(-c2cnn(C)c2)c1=O (stereo not drawn) + CNC(=O)c1ccc(Nc2nc(OC3CCCC3)c3c(-c4ccc5nc(C)oc5c4)c[nH]c3n2)c(OC)c1
- IC50 (second compound 0.0316 µM): > 10000 nM
- IC50 (second compound 0.1 µM): > 10000 nM
- IC50 (second compound 0.316 µM): 4910 nM
- IC50 (second compound 1 µM): < 31.6 nM
- IC50 (second compound 3.16 µM): < 31.6 nM
- IC50 (second compound 10 µM): < 31.6 nM
- viability, T/C [1]: 83.5%
- viability, T/C [2]: 107%
- viability, T/C [3]: 122%
- viability, T/C [4]: 101%
- viability, T/C [5]: 86.5%
- viability, T/C [6]: 56.8%
- viability, T/C [7]: 53.1%
- viability, T/C [8]: 84.6%
- viability, T/C [9]: 78.9%
- viability, T/C [10]: 81.7%
- viability, T/C [11]: 67.2%
- viability, T/C [12]: 50.6%
- viability, T/C [13]: 62.9%
- viability, T/C [14]: 71.4%
- viability, T/C [15]: 58.8%
- viability, T/C [16]: 58.8%
- viability, T/C [17]: 59.3%
- viability, T/C [18]: 38.2%
- viability, T/C [19]: 50.8%
- viability, T/C [20]: 42.9%
- viability, T/C [21]: 37.6%
- viability, T/C [22]: 44.8%
- viability, T/C [23]: 39.2%
- viability, T/C [24]: 35.3%
- viability, T/C [25]: 47.4%
- viability, T/C [26]: 36.9%
- viability, T/C [27]: 42.1%
- viability, T/C [28]: 36.7%
- viability, T/C [29]: 37.8%
- viability, T/C [30]: 23.2%
- viability, T/C [31]: 42.6%
- viability, T/C [32]: 43.8%
- viability, T/C [33]: 35.8%
- viability, T/C [34]: 35.6%
- viability, T/C [35]: 29.5%
- viability, T/C [36]: 21.2%

SMILES: CC(Nc1ccc2c(c1)OCCn1cc(N3C(=O)OCC3C(F)F)nc1-2)C(N)=O (stereo not drawn) + CNC(=O)c1ccc(Nc2nc(OC3CCCC3)c3c(-c4ccc5nc(C)oc5c4)c[nH]c3n2)c(OC)c1
- IC50 (second compound 0.0316 µM): 452 nM
- IC50 (second compound 0.1 µM): 399 nM
- IC50 (second compound 0.316 µM): 49.4 nM
- IC50 (second compound 1 µM): < 31.6 nM
- IC50 (second compound 3.16 µM): < 31.6 nM
- IC50 (second compound 10 µM): < 31.6 nM
- viability, T/C [1]: 76.8%
- viability, T/C [2]: 61%
- viability, T/C [3]: 44.5%
- viability, T/C [4]: 53.9%
- viability, T/C [5]: 33.1%
- viability, T/C [6]: 23.1%
- viability, T/C [7]: 49.9%
- viability, T/C [8]: 64.9%
- viability, T/C [9]: 47.7%
- viability, T/C [10]: 43%
- viability, T/C [11]: 26.4%
- viability, T/C [12]: 19.2%
- viability, T/C [13]: 52.7%
- viability, T/C [14]: 47%
- viability, T/C [15]: 34.1%
- viability, T/C [16]: 27.9%
- viability, T/C [17]: 24.6%
- viability, T/C [18]: 15.8%
- viability, T/C [19]: 47.5%
- viability, T/C [20]: 30%
- viability, T/C [21]: 28.1%
- viability, T/C [22]: 24.3%
- viability, T/C [23]: 19.3%
- viability, T/C [24]: 8.72%
- viability, T/C [25]: 48.3%
- viability, T/C [26]: 36.1%
- viability, T/C [27]: 27.2%
- viability, T/C [28]: 18.9%
- viability, T/C [29]: 10.7%
- viability, T/C [30]: 8.42%
- viability, T/C [31]: 33.4%
- viability, T/C [32]: 29.9%
- viability, T/C [33]: 18.1%
- viability, T/C [34]: 17.7%
- viability, T/C [35]: 13.9%
- viability, T/C [36]: 7.86%

SMILES: COc1c(OCCCN2CCOCC2)ccc2c3n(c(=NC(=O)c4cnc(N)nc4)nc12)CCN3 + CNC(=O)c1ccc(Nc2nc(OC3CCCC3)c3c(-c4ccc5nc(C)oc5c4)c[nH]c3n2)c(OC)c1
- IC50 (second compound 0.0316 µM): 17.4 nM
- IC50 (second compound 0.1 µM): 10.2 nM
- IC50 (second compound 0.316 µM): 7 nM
- IC50 (second compound 1 µM): 3.39 nM
- IC50 (second compound 3.16 µM): < 3.16 nM
- IC50 (second compound 10 µM): < 3.16 nM
- viability, T/C (second compound 0.0316 µM, first compound 0.00316 µM): 74.4%
- viability, T/C (second compound 0.0316 µM, first compound 0.01 µM): 64.8%
- viability, T/C [1]: 33.8%
- viability, T/C [2]: 17.3%
- viability, T/C [3]: 2.95%
- viability, T/C [4]: 0.22%
- viability, T/C (second compound 0.1 µM, first compound 0.00316 µM): 50.5%
- viability, T/C (second compound 0.1 µM, first compound 0.01 µM): 56.1%
- viability, T/C [7]: 33.5%
- viability, T/C [8]: 18.5%
- viability, T/C [9]: 2.54%
- viability, T/C [10]: 0.32%
- viability, T/C (second compound 0.316 µM, first compound 0.00316 µM): 61.2%
- viability, T/C (second compound 0.316 µM, first compound 0.01 µM): 44.2%
- viability, T/C [13]: 27.9%
- viability, T/C [14]: 13.3%
- viability, T/C [15]: 4.38%
- viability, T/C [16]: 3.9%
- viability, T/C (second compound 1 µM, first compound 0.00316 µM): 50.8%
- viability, T/C (second compound 1 µM, first compound 0.01 µM): 37.3%
- viability, T/C [19]: 18.8%
- viability, T/C [20]: 6.93%
- viability, T/C [21]: 1.63%
- viability, T/C [22]: 0.35%
- viability, T/C (second compound 3.16 µM, first compound 0.00316 µM): 47.6%
- viability, T/C (second compound 3.16 µM, first compound 0.01 µM): 35.5%
- viability, T/C [25]: 19.9%
- viability, T/C [26]: 6.45%
- viability, T/C [27]: 1.23%
- viability, T/C [28]: 0.32%
- viability, T/C (second compound 10 µM, first compound 0.00316 µM): 49.1%
- viability, T/C (second compound 10 µM, first compound 0.01 µM): 30.9%
- viability, T/C [31]: 10.6%
- viability, T/C [32]: 5.7%
- viability, T/C [33]: 1.04%
- viability, T/C [34]: 0.31%
